Test results from patent US20170303554A1, “METHOD OF SANITIZING EDIBLE SEEDS, PARTICULARLY MUCILAGE PRODUCING SEEDS” (AGRI-NEO INC., priority 2014, published 2017).

Key:
[1] = tested on: Total count Aerobic bacteria; assay: Total aerobic count on seeds, grains and spices sprayed with sanitizing solutions (Example 1); assay type: cell-based; conditions: for bactericidal effect, conclusion in words: 40 L per 1 tonne
Description: (§1) Seeds were mechanically cleaned and spread in stainless steel containers. Each 100 grams seeds were sprayed with 4 ml total solutions descried above via conventional trigger vaporizer. This solution is equivalent to 40 L disinfecting solution total sprayed on 1-tonne seeds. Seeds, grains and spices were selected to represent all families and types of seeds, grains and spices. Another criterium was to select seeds and grains contaminated with a high count of total aerobic bacteria, yeast, mold, E. coli, Salmonella sp. and other pathogenic microorganisms.
(§2) Seeds, grains and spices treated were: • Whole dried pea, • Split pea dried, • Pea fiber, • Vanilla, • Chia, • Sprouted flax and chia, • Flax, • Hemp, and • Black pepper seeds

Y&M (yeast and mold) = assay: Yeast and mold (Y&M) count on sprayed seeds, grains and spices (Example 1); assay type: cell-based; conditions: 40 L/tonne; for Y&M, Av: average; for Y&M, n1: replicate n1; for Y&M, n2: replicate n2
Description: as §1, §2

CCO [2- Alcohol - ethanol, ethanol] was tested, and the “effect when combined with peracetic acid formulations (synergy), in words” value (from here on “effect when combined”) ([1]; black pepper) was “synergistic with peracetic acid”, the “bactericidal effect, conclusion in words” value ([1]; black pepper) was “not a strong bactericidal agent” and the “effect when combined” value ([1]; hemp) was “synergistic with peracetic acid”. The “bactericidal effect, conclusion in words” value ([1]; hemp) was “not a strong bactericidal agent”, the “effect when combined” value ([1]; pea fiber) was “synergistic with peracetic acid” and the “bactericidal effect, conclusion in words” value ([1]; pea fiber) was “not a strong bactericidal agent”. For the same compound, the “effect when combined” value ([1]; split pea) was “synergistic with peracetic acid”, the “bactericidal effect, conclusion in words” value ([1]; split pea) was “not a strong bactericidal agent” and the “bactericidal effect, conclusion in words” value ([1]; sprouted flax and chia) was “bactericidal agent but not very strong”. For the same compound, the “effect when combined” value ([1]; vanilla) was “synergistic with peracetic acid”, the “bactericidal effect, conclusion in words” value ([1]; vanilla) was “not a strong bactericidal agent” and the “effect when combined” value ([1]; whole dried pea) was “synergistic with peracetic acid”. The “bactericidal effect, conclusion in words” value ([1]; whole dried pea) was “not a strong bactericidal agent”, the “Y&M, Av” value (Y&M (yeast and mold); pea fiber) was “Y&M not detected” and the “Y&M, n1” value (Y&M (yeast and mold); pea fiber) was “n1, n2 not detected”. For the same compound, the “Y&M, n2” value (Y&M (yeast and mold); pea fiber) was “n1, n2 not detected”, the “Y&M, Av” value (Y&M (yeast and mold); whole dried pea) was “Y&M not detected” and the “Y&M, n1” value (Y&M (yeast and mold); whole dried pea) was “n1, n2 not detected”. For the same compound, the “Y&M, n2” value (Y&M (yeast and mold); whole dried pea) was “n1, n2 not detected”, the “Y&M, Av” value (Y&M (yeast and mold); whole split pea) was “Y&M not detected” and the “Y&M, n1” value (Y&M (yeast and mold); whole split pea) was “n1, n2 not detected”. The “Y&M, n2” value (Y&M (yeast and mold); whole split pea) was “n1, n2 not detected”.

In the case of CC(=O)OO [Peracetic acid], the “bactericidal effect, conclusion in words” value ([1]; black pepper) is reported as “strong bactericidal agent”, the “bactericidal effect, conclusion in words” value ([1]; hemp) is reported as “strong bactericidal agent” and the “bactericidal effect, conclusion in words” value ([1]; pea fiber) is reported as “strong bactericidal agent”. The “bactericidal effect, conclusion in words” value ([1]; split pea) was “strong bactericidal agent”, the “bactericidal effect, conclusion in words” value ([1]; vanilla) was “strong bactericidal agent” and the “bactericidal effect, conclusion in words” value ([1]; whole dried pea) was “strong bactericidal agent”.
